Measurements from PMC3678025, “Structure of the Tubulin/FtsZ-Like Protein TubZ from Pseudomonas Bacteriophage ΦKZ” (Journal of Molecular Biology, 2013).

Assays:
[1] = target: T1, ΦKZ TubZ-His6 (Pseudomonas phage phiKZ, UniProt Q8SDC3); experiment: X-ray crystal structure; format: binding; details: 2.0 Å monomer (GDP retained through purification, 150 mM Tris-Cl pH 8.0) and 1.7 Å protofilament (crystallised with GTPγS, pH 5.5); GTPase active site
T1 construct: gene PHIKZ039; used for crystallography
T1 sequence (Q8SDC3 whole entry): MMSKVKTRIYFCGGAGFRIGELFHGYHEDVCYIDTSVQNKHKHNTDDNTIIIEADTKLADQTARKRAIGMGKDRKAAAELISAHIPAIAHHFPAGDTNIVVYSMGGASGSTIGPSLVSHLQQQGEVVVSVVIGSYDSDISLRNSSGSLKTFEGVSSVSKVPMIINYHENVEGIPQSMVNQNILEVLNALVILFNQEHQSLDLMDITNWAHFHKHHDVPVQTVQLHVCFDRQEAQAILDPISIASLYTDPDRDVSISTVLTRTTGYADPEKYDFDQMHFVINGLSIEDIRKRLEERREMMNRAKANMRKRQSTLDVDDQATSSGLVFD

[2] = target: T2, Wild-type ΦKZ TubZ (Pseudomonas phage phiKZ, UniProt Q8SDC3); experiment: […]° light scattering of polymerisation, electron cryo-microscopy; format: biochemical; details: 2 μM protein, 20 or 200 μM GTP, 200 mM KCl, 5 mM MgCl2, pH 8.0, 25 °C; induces polymerisation
T2 construct: gene PHIKZ039; used for light scattering and electron microscopy
T2 sequence (Q8SDC3 whole entry): as above

SMILES	X-ray crystal structure [1]	90° light scattering of polymerisation, electron cryo-microscopy [2]
Nc1nc2c(ncn2[C@@H]2O[C@H](COP(=O)(O)OP(=O)(O)O)[C@@H](O)[C@H]2O)c(=O)[nH]1 [GDP]	The GTPase active site within the subunit was occupied by GDP, which was retained	
Nc1nc2c(ncn2[C@@H]2O[C@H](COP(=O)(O)OP(=O)(O)OP(=O)(O)O)[C@@H](O)[C@H]2O)c(=O)[nH]1 [GTP]		ΦKZ TubZ filaments proved extremely dynamic in the presence of GTP
